Measured values as given in patent publication US10472393B2, “Method for inhibiting ADAM proteases with cyclic peptides” (Cancer Research Technology Limited, priority 2007, dated 2019).
*1 amine or outer side, *2 acyl side, *3 side chain or, on linkers, in order; H or OH if unused. Where a SMILES comes first, the peptide text is derived from it. Where no end group is shown, it is not given here. [ ]: non-standard residue; d: D form. isoSer(2S) = O=C([C@@H](O)CN[*:1])[*:2]

Columns and labels:
recombinant ADAM8 = biological target: T1, recombinant ADAM8 (Mus musculus, UniProt Q05910); assay: Fluorescence assay of purified recombinant ADAM8 with fluorogenic CD23 peptide substrate; format: biochemical; settings: for inhibition of ADAM8 proteolytic activity: FIG. 1B, peptides at 100 nM
T1 sequence (Q05910 17-826): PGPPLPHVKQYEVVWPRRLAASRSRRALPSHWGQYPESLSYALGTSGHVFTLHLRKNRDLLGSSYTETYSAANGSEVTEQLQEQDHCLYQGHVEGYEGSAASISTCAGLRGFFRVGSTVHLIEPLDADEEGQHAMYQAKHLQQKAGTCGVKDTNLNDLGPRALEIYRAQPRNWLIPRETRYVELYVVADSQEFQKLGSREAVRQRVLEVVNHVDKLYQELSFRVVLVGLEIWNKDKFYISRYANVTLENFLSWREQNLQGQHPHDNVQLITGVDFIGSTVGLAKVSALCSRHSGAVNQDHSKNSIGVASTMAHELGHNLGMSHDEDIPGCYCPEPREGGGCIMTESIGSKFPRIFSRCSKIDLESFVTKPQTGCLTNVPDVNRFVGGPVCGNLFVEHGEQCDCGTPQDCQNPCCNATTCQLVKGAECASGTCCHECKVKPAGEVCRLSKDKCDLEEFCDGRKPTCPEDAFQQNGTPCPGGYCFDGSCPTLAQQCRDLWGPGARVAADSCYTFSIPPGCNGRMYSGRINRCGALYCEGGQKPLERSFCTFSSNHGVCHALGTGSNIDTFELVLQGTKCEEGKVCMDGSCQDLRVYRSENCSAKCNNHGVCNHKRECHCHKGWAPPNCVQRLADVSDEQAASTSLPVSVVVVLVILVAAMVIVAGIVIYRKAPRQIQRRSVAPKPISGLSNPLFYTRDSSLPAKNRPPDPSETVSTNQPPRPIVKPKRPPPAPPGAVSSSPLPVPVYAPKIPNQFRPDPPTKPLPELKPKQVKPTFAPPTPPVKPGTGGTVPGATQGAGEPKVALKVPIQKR
Method: In the following example, the ability of cyclic peptides to inhibit the activity of a recombinant ADAM8 was tested in fluorescence assays using a fluorogenic ADAM8 substrate (Moss and Rasmussen, 2007).
(§1) Activity of purified recombinant ADAM8 was assessed by using a fluorogenic CD23 peptide (Dabcyl-[…](5-FAM)-CONH2, SEQ ID NO:19) as a substrate. 50 ng substrate was incubated with 100 ng of ADAM8 in assay buffer (25 mM TrisHCl pH 7.5, 10 mM CaCl2, 150 mM NaCl) at 37° C. in the time range of 0 to 18 hours. Potential ADAM8 inhibitors were preincubated for 30 min before addition of the substrate. As a negative control, CD23 was incubated with assay buffer. For determination of ADAM10 activity, 100 ng of the recombinant ADAM10 protein (R&D systems) was used in conjunction with the fluorogenic substrate Dabcyl-LAQA(HomoPhe) RSC (Fluorescein)-NH2 (SEQ ID NO:55) in assay buffer (TrisHCl pH 9.0, 2.5 μM ZnCl2). For both assays the final volume in each well was 150 μl. Activity was measured as increase in fluorescence resulting from ADAM8/ADAM10 to cleave the quenched fluorescent substrates (λ excitation: 485 nm; λ emission: 520 nm) using a BMG Optima plate reader fluorometer.

recombinant ADAM10 = biological target: T2, recombinant ADAM10 (Homo sapiens, UniProt O14672); assay: Fluorescence assay of recombinant ADAM10 with fluorogenic LAQA peptide substrate; format: biochemical; settings: FIG. 2, peptides at 100 nM
T2 construct: purchased R&D systems
T2 sequence (O14672 214-748): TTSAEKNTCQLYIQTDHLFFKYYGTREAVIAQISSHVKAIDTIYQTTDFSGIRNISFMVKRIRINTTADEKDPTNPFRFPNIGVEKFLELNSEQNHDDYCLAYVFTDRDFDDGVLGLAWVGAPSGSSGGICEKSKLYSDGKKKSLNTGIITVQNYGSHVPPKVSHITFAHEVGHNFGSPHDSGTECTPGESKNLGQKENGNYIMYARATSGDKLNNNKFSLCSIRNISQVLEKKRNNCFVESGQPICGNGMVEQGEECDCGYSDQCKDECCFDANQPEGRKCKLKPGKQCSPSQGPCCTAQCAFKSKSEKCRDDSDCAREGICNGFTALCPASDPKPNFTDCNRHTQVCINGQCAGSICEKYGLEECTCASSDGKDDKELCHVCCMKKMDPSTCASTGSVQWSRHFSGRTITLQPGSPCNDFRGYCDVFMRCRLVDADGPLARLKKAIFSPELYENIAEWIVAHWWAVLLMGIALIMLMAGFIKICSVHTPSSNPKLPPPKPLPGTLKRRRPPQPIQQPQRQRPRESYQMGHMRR
Method: as §1

ADAM8 DC domain = biological target: T3, ADAM8 DC domain (Mus musculus, UniProt Q05910); assay: Adhesion of ADAM8-expressing cells to plates coated with recombinant ADAM8 DC domain; format: cell-based; settings: FIG. 8; concentration used in the range of 10 nM
T3 construct: recombinant ADAM8 disintegrin/cysteine-rich (DC) domain; Myc (C); His6 (C); made in house; host or cells: E. coli strain TOP10
T3 sequence (Q05910 402-643 limits assumed): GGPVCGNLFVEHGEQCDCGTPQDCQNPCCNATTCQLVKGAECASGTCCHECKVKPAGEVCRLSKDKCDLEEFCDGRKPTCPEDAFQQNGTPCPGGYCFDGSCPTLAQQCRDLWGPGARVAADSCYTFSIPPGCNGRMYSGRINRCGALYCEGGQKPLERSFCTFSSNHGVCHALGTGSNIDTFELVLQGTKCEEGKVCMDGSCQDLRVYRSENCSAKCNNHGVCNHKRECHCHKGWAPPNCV
Method: In this example, peptides synthesised as described in example 1 were used to target cell adhesion mediated by the ADAM8 DC domain. A recombinant DC domain of ADAM8 was expressed and purified from E. coli and then coated onto cell culture plates. Cells over-expressing ADAM8 were then allowed to bind to the ADAM8 DC domain on the plates.
96-well plates were coated with 50 μg/ml of recombinant ADAM8 DC protein in PBS at 4° C. for 16 h. To express the recombinant DC domain of ADAM8, the cDNA fragment encoding the A8 DC domain was generated by PCR using Platinum™ Pfx polymerase (Invitrogen) with the following primers: DCE-A8f, 5′-GGTGGCCCTGTGTGTGGAAAC-3′ (SEQ ID NO:17); DCE-A8r, 5′-TACACAGTTGGGTGGTGCCCA-3′ (SEQ ID NO:18). The resulting cDNA fragment was cloned into the bacterial expression vector pTrcHis2 (Invitrogen) containing a C-terminal Myc and His6 tag. This vector was transformed into E. coli strain TOP10 (Invitrogen). Recombinant protein expression was induced with 1 mM isopropyl-1-thio-D-galactopyranoside for 5 h to overnight. […]
After application of the recombinant protein and blocking with bovine serum albumin for 1 h, 10^5 cells in PBS or medium (with 5% FCS) were seeded onto the plates. […] After 1 h incubation at 37 C, the wells were rinsed 3× with PBS, and the remaining cells were quantified by counting 10 randomly chosen viewing fields (100-fold magnification). […]

[1] = system: C6 glioma cells overexpressing ADAM8; assay: Matrigel invasion assay, C6 glioma cells overexpressing ADAM8; format: cell-based, rat
Method: (§2) In this example, the ability of cyclic peptide to inhibit ADAM8 mediated tumour cell migration through an artificial extracellular matrix (Matrigel®) was measured in a cell invasion assay. Rat glioma C6 cells were stably transfected with full length ADAM8 cDNA [Schlomann et al, 2002]. Untransfected C6 glioma cells served as controls. 5×10^4 cells were suspended in 100 μl of culture medium in the absence or presence of peptides (100 nM) and loaded into Matrigel invasion chambers (BD Biosciences, Heidelberg, Germany), which were handled according to the supplier's manual. After 20 hours incubation time, invaded cells were fixed with methanol, stained with toluidine blue, and counted. Experiments were performed in triplets and from each well, 10 viewing fields were counted manually under the microscope. Differences between the values obtained were analysed using the Mann-Whitney U test.
(§3) ADAM8 was overexpressed by transfection in fibroblast (L929) and glioma (C6) cell lines which show no invasive potential under untransfected conditions. When ADAM8 expressing plasmids were transfected into these cell lines, the cells became highly invasive in Matrigel Invasion assays (e.g. as described in example 5). […] Invasion is also mediated by a soluble variant of ADAM8, which is released upon activation of ADAM8 in these cells.

[2] = system: mouse fibroblast (L929) cells overexpressing ADAM8; assay: Matrigel invasion assay, L929 fibroblast cells overexpressing ADAM8; format: cell-based; settings: FIG. 11; peptide 5 μM
Method: as §2, §3

ADAM8 = assay: Specificity test, ADAM catalytic/disintegrin construct, CD23 fluorescent substrate; format: biochemical; settings: read-out: ADAM inhibition with P1, IC50, 10 mM CaCl2 in buffer
Method: (§4) The maximal concentration of the inhibitor peptide was 10 μM.
(§5) ADAM catalytic/disintegrin constructs were monitored at 5-min intervals using the indicated fluorescent substrates with excitation and emission wavelengths of 485 and 530 nm, respectively. The substrates were diluted from a 10 mM stock in DMSO to 10 μM in assay buffer containing 20 mM Tris, pH 8.0, and 6×10^−4% Brij-35. For experiments with ADAM8 only, 10 mM CaCl2 was added to the buffer. Reactions were run in a 96-well plate with either inhibitor (10 nM-10 μM) in 1% DMSO or a 1% DMSO control. Background wells contained substrate and 1% DMSO and were subtracted from all other wells. Endpoints were determined in wells containing substrate and an excess of ADAM17 for the TNF-alpha substrate and ADAM8 for the CD23 substrate. Concentrations of ADAM proteins were in the range of 2.0 nM for TACE, 10 nM for ADAM9, 5 nM for ADAM10, 10 nM for ADAM8, and 2 nM for ADAM12.

ADAM9 = assay: Specificity test, ADAM catalytic/disintegrin construct, TNF peptide fluorescent substrate; format: biochemical; settings: maximal concentration 10 μM
Method: as §4, §5

ADAM10 = assay: Specificity test, ADAM catalytic/disintegrin construct, LAQA fluorescent substrate; format: biochemical; settings: maximal concentration 10 μM
Method: as §4, §5

ADAM12 = assay: as above; format: biochemical; settings: maximal concentration 10 μM
Method: as §4, §5

ADAM17 (TACE) = assay: as above; format: biochemical; settings: maximal concentration 10 μM
Method: as §4, §5

Mice (strain C57BL/6) = assay: Acute and chronic toxicity study in mice; format: in vivo, mouse
Method: To test for acute and for chronic toxicity, we used dosages of 1 μg, 5 μg, and 10 μg per gram of body weight in 100 μl of injection volume. Mice (strain C57BL/6) were either injected once (acute toxicity) or weekly three-times (chronic toxicity) intraperitoneal with the dosages indicated. All mice were analysed in cohorts of n=6, and NaCl injected mice were used as controls. […] We assessed spontaneous behaviour and motor performance of the mice. […] After 4 weeks, mice were sacrificed and representative organs were dissected and assessed histologically by normal hematoxylin/eosin (HE) staining. For each cohort of mice, one representative is documented for brain (cerebellum and cortex), liver, spleen, and kidney in FIG. 13.

Q: With “H-RLSKDK-OH (not fully specified (bridges)) [Peptide P4]” as the compound, how does the “inhibition of ADAM8 proteolytic activity” value (recombinant ADAM8; CD23 substrate) read?
A: The value was “little effect on ADAM8 activity”.

Q: With `CC(C)C[C@@H]1NC(=O)[C@H](CCCNC(=N)N)NC(=O)[C@H](CCCCN)NC(=O)[C@H](CC(=O)O)NC(=O)[C@H](CCCCN)NC(=O)[C@@H](O)CNC1=O` [Peptide P1, c(RLsKDK)] (cyclo(RL[isoSer(2S)]KDK)) as the compound, how does the “inhibition of ADAM8 proteolytic activity” value (recombinant ADAM8; CD23 substrate) read?
A: The value was “showed the most marked inhibition”.

Q: And the “concentration dependence of ADAM8 inhibition” value (recombinant ADAM8; FIG. 1C, 50-200 nM, CD23 substrate)?
A: Its value is “concentration-dependant inhibition”.

Q: What about the “inhibition of ADAM10” value (recombinant ADAM10) of the same compound?
A: Its value is “little inhibition”.

Q: What about the “inhibition of cell adhesion mediated by ADAM8 DC domain” value (ADAM8 DC domain) of the same compound?
A: Its value is “very potent in the inhibition of cell adhesion”.

Q: What about the “tumour cell invasion in ADAM8 expressing cells” value ([1]; FIG. 4, Example 5, 20 hours) of the same compound?
A: Its value is “dramatically reduced tumour cell invasion”.

Q: And the “cell invasion, dose dependence” value ([1]; FIG. 10, Example 7)?
A: The value was “blocks cell invasion in a dose-dependent manner”.

Q: And the “ADAM-8 mediated cell invasion” value ([1]; FIG. 12, peptide 5 μM)?
A: Its value is “significantly blocked”.

Q: And the “ADAM-8 mediated cell invasion” value [2]?
A: The value was “significantly blocked”.

Q: And the IC50 (ADAM8)?
A: The IC50 was 100 nM.

Q: And the “ADAM inhibition with P1” value (ADAM9)?
A: Its value is “No inh. at 10 μM”.

Q: And the “ADAM inhibition with P1” value (ADAM10)?
A: Its value is “No inh. at 10 μM”.

Q: What about the “ADAM inhibition with P1” value (ADAM12) of the same compound?
A: Its value is “No inh. at 10 μM”.

Q: What about the “ADAM inhibition with P1” value (ADAM17 (TACE)) of the same compound?
A: Its value is “No inh. at 10 μM”.

Q: And the “spontaneous behaviour and motor performance” value (Mice (strain C57BL/6); 1, 5, 10 μg per gram body weight i.p., once or weekly three-times, 4 weeks)?
A: Its value is “not able to detect any differences in behaviour”.

Q: What about the “survival and obvious abnormalities” value (Mice (strain C57BL/6); 1, 5, 10 μg per gram body weight i.p., once or weekly three-times, 4 weeks observation) of the same compound?
A: The value was “all mice were alive and did not show any obvious abnormalities”.

Q: What about the “histology (HE staining) of brain, liver, spleen, kidney” value (Mice (strain C57BL/6); FIG. 13, after 4 weeks) of the same compound?
A: Its value is “did not show any evidence of toxicity”.

Q: `CNC(=O)[C@H](Cc1ccccc1)NC(=O)[C@H](CC(C)C)[C@H](CSc1cccs1)C(=O)NO` [BB-94, batimastat, reference compound] was tested. Which IC50 (recombinant ADAM8; FIG. 1A, CD23 as substrate, read-out: IC50 for the inhibition of ADAM8) did it give?
A: The IC50 was roughly 50 nM.
